Key:
BRD4 (BDII_E352-M457) = target: T1, BRD4 (BDII_E352-M457) (Homo sapiens, UniProt O60885); assay: TR-FRET bromodomain binding assay, second bromodomain of BRD4; conditions: His-tagged BD2, 30 nM Alexa647 probe; TR-FRET protocol A-E given per row
T1 construct: proliferation; Protocol; made in house
Protocol: (§1) A time-resolved fluorescence resonance energy transfer (TR-FRET) assay was used to determine the affinities of compounds of the Examples listed in Table 1 for each bromodomain of BRD4. His-tagged first (BD1: amino acids K57-E168) and second (BD2: amino acids E352-E168) bromodomains of BRD4 were expressed and purified. An Alexa647-labeled BET-inhibitor was used as the fluorescent probe in the assay.
(§2) Compound dilution series were prepared in DMSO via an approximately 3-fold serial dilution from one of the following:
(§3) Assay method D: 2.5 mM-800 nM
For Assay methods A, C, and D: Compounds were then diluted 6:100 in assay buffer (20 mM Sodium Phosphate, pH 6.0, 50 mM NaCl, 1 mM Ethylenediaminetetraacetic acid, 0.01% Triton X-100, 1 mM DL-Dithiothreitol) to yield 3× working solutions. […] Twelve μL of this solution were added to the assay plate to reach a final volume of 18 μL.
TR-FRET data were normalized to the means of 24 no-compound controls (“high”) and 8 controls containing 1 μM un-labeled probe (“low”). Percent inhibition was plotted as a function of compound concentration and the data were fit with the 4 parameter logistic equation to obtain IC50s Inhibition constants (Ki) were calculated from the IC50s, probe Kd and probe concentration. Typical Z′ values were between 0.65 and 0.75.

BRD4 (BDI_K57-E168) = target: T2, BRD4 (BDI_K57-E168) (Homo sapiens, UniProt O60885); assay: TR-FRET bromodomain binding assay, first bromodomain of BRD4; conditions: His-tagged BD1, 100 nM Alexa647 probe; TR-FRET protocol A-E given per row
T2 construct: BD1: amino acids K57-E168; made in house
Protocol: as §1, §2
Assay method A: 250 μM-4.2 nM
Assay method B: 0.47 mM to 7.8 nM
Assay method C: 500 μM-8.5 nM
as §3
Assay method E: 0.047 mM to 0.78 nM or 5-fold serial dilution from Assay method D
For Assay methods A, C, and D: Compounds were then diluted 6:100 in assay buffer (20 mM Sodium Phosphate, pH 6.0, 50 mM NaCl, 1 mM Ethylenediaminetetraacetic acid, 0.01% Triton X-100, 1 mM DL-Dithiothreitol) to yield 3× working solutions. Six microliters (μL) of the working solution was then transferred to white, low-volume assay plates (Costar #3673). A 1.5× assay mixture containing His-tagged bromodomain, Europium-conjugated anti-His antibody (Invitrogen PV5596) and the Alexa-647-conjugated probe molecule was also prepared. Twelve μL of this solution were added to the assay plate to reach a final volume of 18 μL.
For Assay methods B and E: Compound dilutions were added directly into white, low-volume assay plates (Perkin Elmer Proxiplate 384 Plus #6008280) using a Labcyte Echo in conjunction with Labcyte Access and Thermo Multidrop CombinL robotics. Compounds were then suspended in eight microliters (μL) of assay buffer (20 mM Sodium Phosphate, pH 6.0, 50 mM NaCl, 1 mM Ethylenediaminetetraacetic acid disodium salt dihydrate, 0.01% Triton X-100, 1 mM DL-Dithiothreitol) containing His-tagged bromodomain, Europium-conjugated anti-His antibody (Invitrogen PV5596) and Alexa-647-conjugated probe.
The final concentration of 1× assay mixture for assay methods A, B, C, D, and E contains 2% DMSO, 8 nM His-tagged bromodomain, 1 nM Europium-conjugated anti-His-tag antibody and 100 nM or 30 nM probe (for BDI or BDII, respectively) and compound concentration in the range of: 5 μM-85 pM for method A, 9.19 μM 150 pM for method B, 10 μM-169 pM for method C, 50 μM-16 nM for method D, and 0.92 μM-15 pM for method E.
After a one-hour equilibration at room temperature, TR-FRET ratios were determined using an Envision multilabel plate reader (Ex 340, Em 495/520).
TR-FRET data were normalized to the means of 24 no-compound controls (“high”) and 8 controls containing 1 μM un-labeled probe (“low”). Percent inhibition was plotted as a function of compound concentration and the data were fit with the 4 parameter logistic equation to obtain IC50s Inhibition constants (Ki) were calculated from the IC50s, probe Kd and probe concentration. Typical Z′ values were between 0.65 and 0.75. The minimum significant ratio was determined to evaluate assay reproducibility (Eastwood et al., (2006) J Biomol Screen, 11: 253-261). The MSR was determined to be 2.03 for BDI and 1.93 for BDII, and a moving MSR (last six run MSR overtime) for both BDI and BDII was typically <3.

Structure (SMILES) | Ki (BRD4 (BDII_E352-M457)) | Ki (BRD4 (BDI_K57-E168))
CCS(=O)(=O)c1ccc(Oc2ccc(Cl)c(Cl)c2)c(-c2cn(C)c3c(=O)[nH]ccc23)c1 [Example 76, 3-[2-(3,4-dichlorophenoxy)-5-(ethylsulfonyl)phenyl]-1-methyl-1,6-dihydro-7H-pyrrolo[2,3-c]pyridin-7-one] | 64 nM | 77 nM
CCS(=O)(=O)c1ccc(Oc2ccc(C(F)(F)F)cc2)c(-c2cn(C)c3c(=O)[nH]ccc23)c1 [Example 77, 3-{5-(ethylsulfonyl)-2-[4-(trifluoromethyl)phenoxy]phenyl}-1-methyl-1,6-dihydro-7H-pyrrolo[2,3-c]pyridin-7-one] | 139 nM | 62 nM
CCc1cc(Oc2ccc(S(=O)(=O)CC)cc2-c2cn(C)c3c(=O)[nH]ccc23)ccc1Cl [Example 79, 3-[2-(4-chloro-3-ethylphenoxy)-5-(ethylsulfonyl)phenyl]-1-methyl-1,6-dihydro-7H-pyrrolo[2,3-c]pyridin-7-one] | 84 nM | 150 nM
CCS(=O)(=O)c1ccc(Oc2ccc(C#N)cc2OC)c(-c2cn(C)c3c(=O)[nH]ccc23)c1 [Example 80, 4-[4-(ethylsulfonyl)-2-(1-methyl-7-oxo-6,7-dihydro-1H-pyrrolo[2,3-c]pyridin-3-yl)phenoxy]-3-methoxybenzonitrile] | 53 nM | 56 nM
CCS(=O)(=O)c1ccc(Oc2cccnc2)c(-c2cn(C)c3c(=O)[nH]ccc23)c1 [Example 81, 3-[5-(ethylsulfonyl)-2-(pyridin-3-yloxy)phenyl]-1-methyl-1,6-dihydro-7H-pyrrolo[2,3-c]pyridin-7-one] | 100 nM | 81 nM
CCS(=O)(=O)c1ccc(Oc2ccc(Cl)cc2Cl)c(-c2cn(C)c3c(=O)[nH]ccc23)c1 [Example 82, 3-[2-(2,4-dichlorophenoxy)-5-(ethylsulfonyl)phenyl]-1-methyl-1,6-dihydro-7H-pyrrolo[2,3-c]pyridin-7-one] | 49 nM | 66 nM
CCS(=O)(=O)c1ccc(Oc2cccc(Cl)c2Cl)c(-c2cn(C)c3c(=O)[nH]ccc23)c1 [Example 84, 3-[2-(2,3-dichlorophenoxy)-5-(ethylsulfonyl)phenyl]-1-methyl-1,6-dihydro-7H-pyrrolo[2,3-c]pyridin-7-one] | 25 nM | 55 nM
CCS(=O)(=O)c1ccc(Oc2ccc(OC)cc2Cl)c(-c2cn(C)c3c(=O)[nH]ccc23)c1 [Example 85, 3-[2-(2-chloro-4-methoxyphenoxy)-5-(ethylsulfonyl)phenyl]-1-methyl-1,6-dihydro-7H-pyrrolo[2,3-c]pyridin-7-one] | 17 nM | 44 nM
CCS(=O)(=O)c1ccc(Oc2cncc(C)n2)c(-c2cn(C)c3c(=O)[nH]ccc23)c1 [Example 86, 3-{5-(ethylsulfonyl)-2-[(6-methylpyrazin-2-yl)oxy]phenyl}-1-methyl-1,6-dihydro-7H-pyrrolo[2,3-c]pyridin-7-one] | 764 nM | 697 nM
CCS(=O)(=O)c1ccc(Oc2cncnc2)c(-c2cn(C)c3c(=O)[nH]ccc23)c1 [Example 88, 3-[5-(ethylsulfonyl)-2-(pyrimidin-5-yloxy)phenyl]-1-methyl-1,6-dihydro-7H-pyrrolo[2,3-c]pyridin-7-one] | 739 nM | 287 nM
Cn1cc(-c2cc(CS(C)(=O)=O)ccc2Oc2ccc(F)cc2F)c2cc(-c3cc(CS(C)(=O)=O)ccc3Oc3ccc(F)cc3F)[nH]c(=O)c21 [Example 93, 3,5-bis{2-(2,4-difluorophenoxy)-5-[(methylsulfonyl)methyl]phenyl}-1-methyl-1,6-dihydro-7H-pyrrolo[2,3-c]pyridin-7-one] | 619 nM | 484 nM
Cc1noc(C)c1-c1cc2c(-c3cc(CS(C)(=O)=O)ccc3Oc3ccc(F)cc3F)cn(C)c2c(=O)[nH]1 [Example 94, 3-{2-(2,4-difluorophenoxy)-5-[(methylsulfonyl)methyl]phenyl}-5-(3,5-dimethyl-1,2-oxazol-4-yl)-1-methyl-1,6-dihydro-7H-pyrrolo[2,3-c]pyridin-7-one] | 1870 nM | 168 nM
Cn1cc(-c2c(OCC3CC3)ccc3cc[nH]c23)c2cc[nH]c(=O)c21 [Example 98, 3-[6-(cyclopropylmethoxy)-1H-indol-7-yl]-1-methyl-1,6-dihydro-7H-pyrrolo[2,3-c]pyridin-7-one] | 2030 nM | 992 nM
CCOC(=O)c1cc2c(-c3cn(C)c4c(=O)[nH]ccc34)c(OCC3CC3)ccc2[nH]1 [Example 99, ethyl 5-(cyclopropylmethoxy)-4-(1-methyl-7-oxo-6,7-dihydro-1H-pyrrolo[2,3-c]pyridin-3-yl)-1H-indole-2-carboxylate] | 2430 nM | > 2380 nM
CNC(=O)c1cc2c(-c3cn(C)c4c(=O)[nH]ccc34)c(OCC3CC3)ccc2[nH]1 [Example 107, 5-(cyclopropylmethoxy)-N-methyl-4-(1-methyl-7-oxo-6,7-dihydro-1H-pyrrolo[2,3-c]pyridin-3-yl)-1H-indole-2-carboxamide] | 407 nM | > 2380 nM
Cn1cc(-c2cc(CNC3CCNCC3)ccc2Oc2ccc(F)cc2F)c2cc[nH]c(=O)c21 [Example 112, 3-{2-(2,4-difluorophenoxy)-5-[(piperidin-4-ylamino)methyl]phenyl}-1-methyl-1,6-dihydro-7H-pyrrolo[2,3-c]pyridin-7-one] | 1050 nM | 1050 nM
CC(C)CCNCc1ccc(Oc2ccc(F)cc2F)c(-c2cn(C)c3c(=O)[nH]ccc23)c1 [Example 117, 3-[2-(2,4-difluorophenoxy)-5-{[(3-methylbutyl)amino]methyl}phenyl]-1-methyl-1,6-dihydro-7H-pyrrolo[2,3-c]pyridin-7-one] | 750 nM | 776 nM
Cc1c[nH]c(=O)c2c1c(-c1cc(S(C)(=O)=O)ccc1Oc1ccc(F)cc1F)cn2C [Example 123, 3-[2-(2,4-difluorophenoxy)-5-(methylsulfonyl)phenyl]-1,4-dimethyl-1,6-dihydro-7H-pyrrolo[2,3-c]pyridin-7-one] | 428 nM | 130 nM
Cc1c[nH]c(=O)c2c1c(-c1cc(S(C)(=O)=O)ccc1OCCC1CC1)cn2C [Example 124, 3-[2-(2-cyclopropylethoxy)-5-(methylsulfonyl)phenyl]-1,4-dimethyl-1,6-dihydro-7H-pyrrolo[2,3-c]pyridin-7-one] | 104 nM | 127 nM
Cn1cc(-c2cc(CN3CCC(C(F)(F)F)CC3)ccc2Oc2ccc(F)cc2F)c2cc[nH]c(=O)c21 [Example 129, 3-[2-(2,4-difluorophenoxy)-5-{[4-(trifluoromethyl)piperidin-1-yl]methyl]phenyl}-1-methyl-1,6-dihydro-7H-pyrrolo[2,3-c]pyridin-7-one] | 1190 nM | 1140 nM
Cn1cc(-c2cc(CN)ccc2Oc2ccc(F)cc2F)c2cc[nH]c(=O)c21 [Example 136, 3-[5-(aminomethyl)-2-(2,4-difluorophenoxy)phenyl]-1-methyl-1,6-dihydro-7H-pyrrolo[2,3-c]pyridin-7-one] | 1320 nM | 1090 nM
